{"source": "paper PMC7904743", "about": "“WIDOCK: a reactive docking protocol for virtual screening of covalent inhibitors” (Journal of Computer-Aided Molecular Design, 2021)", "origin": "cited, not measured here", "key": {"OTUB2": {"system": "OTUB2", "settings": "experimental actives if % labeling higher than 50%, cited from earlier work"}, "NUDT7": {"system": "NUDT7", "settings": "protein labeling at 200 μM; experimental actives if % labeling higher than 50%; cited from earlier work"}, "[1]": {"settings": "thiol reactivity, cited from earlier work"}, "[2]": {"settings": "natural log of average kinetic rate constant"}, "[3]": {"settings": "natural log of average rate constant"}, "[4]": {"settings": "natural log of average rate constant k"}, "[5]": {"settings": "natural logarithm of average rate constant"}}, "note": "Where two headings read alike, the source gives them in different places.", "data": [{"smiles": "Cc1ccc(C(=O)N2CCN(C(=O)CCl)CC2)cc1", "note": "[PCM-0102962, Cc1ccc(C(=O)N2CCN(C(=O)CCl)CC2)cc1]", "values": [{"measurement": "OTUB2 % labeling", "setting": "OTUB2; OTUB2 protein labeling", "result": 0, "unit": "%"}, {"measurement": "NUDT7 % labeling", "setting": "NUDT7", "result": 0, "unit": "%"}, {"measurement": "ln(avg k)", "setting": "[1]; [2]", "result": -15.309}, {"measurement": "ln(avg k)", "setting": "[1]; [3]", "result": -15.309}]}, {"smiles": "COC(=O)c1ccc(Cl)c(NC(=O)CCl)c1", "note": "[PCM-0102764, COC(=O)c1ccc(Cl)c(NC(=O)CCl)c1]", "values": [{"measurement": "OTUB2 % labeling", "setting": "OTUB2; OTUB2 protein labeling", "result": 29, "unit": "%"}, {"measurement": "NUDT7 % labeling", "setting": "NUDT7", "result": 7, "unit": "%"}, {"measurement": "ln(avg k)", "setting": "[1]; [2]", "result": -16.022}, {"measurement": "ln(avg k)", "setting": "[1]; [3]", "result": -16.022}]}, {"smiles": "O=C(CCl)Nc1ccc(O)cc1", "note": "[PCM-0102163, O=C(CCl)Nc1ccc(O)cc1]", "values": [{"measurement": "OTUB2 % labeling", "setting": "OTUB2", "result": 16, "unit": "%"}, {"measurement": "NUDT7 % labeling", "setting": "NUDT7", "result": 0, "unit": "%"}, {"measurement": "ln(avg k)", "setting": "[1]; [4]", "result": -15.989}, {"measurement": "ln(avg k)", "setting": "[1]; [5]", "result": -15.989}]}, {"smiles": "O=C(CCl)NNC(=O)C1CCC1", "note": "[PCM-0103061, O=C(CCl)NNC(=O)C1CCC1]", "values": [{"measurement": "OTUB2 % labeling", "setting": "OTUB2; OTUB2 protein labeling", "result": 14, "unit": "%"}, {"measurement": "NUDT7 % labeling", "setting": "NUDT7", "result": 28, "unit": "%"}, {"measurement": "ln(avg k)", "setting": "[1]; [2]", "result": -15.962}, {"measurement": "ln(avg k)", "setting": "[1]; [3]", "result": -15.962}]}, {"smiles": "O=C(CCl)Nc1ccc2c(c1)OCCCO2", "note": "[PCM-0102409, O=C(CCl)Nc1ccc2c(c1)OCCCO2]", "values": [{"measurement": "OTUB2 % labeling", "setting": "OTUB2", "result": 23, "unit": "%"}, {"measurement": "NUDT7 % labeling", "setting": "NUDT7", "result": 10, "unit": "%"}, {"measurement": "ln(avg k)", "setting": "[1]; [4]", "result": -15.744}, {"measurement": "ln(avg k)", "setting": "[1]; [5]", "result": -15.744}]}, {"smiles": "O=C(CCl)NCc1nc2ccccc2s1", "note": "[PCM-0102803, O=C(CCl)NCc1nc2ccccc2s1]", "values": [{"measurement": "OTUB2 % labeling", "setting": "OTUB2; OTUB2 protein labeling", "result": 37, "unit": "%"}, {"measurement": "NUDT7 % labeling", "setting": "NUDT7", "result": 0, "unit": "%"}, {"measurement": "ln(avg k)", "setting": "[1]; [2]", "result": -16.252}, {"measurement": "ln(avg k)", "setting": "[1]; [3]", "result": -16.252}]}, {"smiles": "CC(NC(=O)CCl)C(=O)N(C)C", "note": "(stereo not drawn) [PCM-0102754, CC(NC(=O)CCl)C(=O)N(C)C]", "values": [{"measurement": "OTUB2 % labeling", "setting": "OTUB2; OTUB2 protein labeling", "result": 0, "unit": "%"}, {"measurement": "NUDT7 % labeling", "setting": "NUDT7", "result": 0, "unit": "%"}, {"measurement": "ln(avg k)", "setting": "[1]; [2]", "result": -16.933}, {"measurement": "ln(avg k)", "setting": "[1]; [3]", "result": -16.933}]}, {"smiles": "CC(c1cc2ccccc2o1)N(C)C(=O)CCl", "note": "(stereo not drawn) [PCM-0102971, CC(c1cc2ccccc2o1)N(C)C(=O)CCl]", "values": [{"measurement": "OTUB2 % labeling", "setting": "OTUB2; OTUB2 protein labeling", "result": 0, "unit": "%"}, {"measurement": "NUDT7 % labeling", "setting": "NUDT7", "result": 66, "unit": "%"}, {"measurement": "ln(avg k)", "setting": "[1]; [2]", "result": -16.092}, {"measurement": "ln(avg k)", "setting": "[1]; [3]", "result": -16.092}]}, {"smiles": "CS(C)(=O)=NC(=O)CCl", "note": "[PCM-0102969, CS(C)(=O)=NC(=O)CCl]", "values": [{"measurement": "OTUB2 % labeling", "setting": "OTUB2; OTUB2 protein labeling", "result": 0, "unit": "%"}, {"measurement": "NUDT7 % labeling", "setting": "NUDT7", "result": 0, "unit": "%"}, {"measurement": "ln(avg k)", "setting": "[1]; [2]", "result": -15.757}, {"measurement": "ln(avg k)", "setting": "[1]; [3]", "result": -15.757}]}, {"smiles": "O=C(CCl)Nc1cc(F)ccc1F", "note": "[PCM-0102284, O=C(CCl)Nc1cc(F)ccc1F]", "values": [{"measurement": "OTUB2 % labeling", "setting": "OTUB2", "result": 28, "unit": "%"}, {"measurement": "NUDT7 % labeling", "setting": "NUDT7", "result": 0, "unit": "%"}, {"measurement": "ln(avg k)", "setting": "[1]; [4]", "result": -15.941}, {"measurement": "ln(avg k)", "setting": "[1]; [5]", "result": -15.941}]}, {"smiles": "O=C(CCl)NCc1ccco1", "note": "[PCM-0102671, O=C(CCl)NCc1ccco1]", "values": [{"measurement": "OTUB2 % labeling", "setting": "OTUB2", "result": 35, "unit": "%"}, {"measurement": "NUDT7 % labeling", "setting": "NUDT7", "result": 0, "unit": "%"}, {"measurement": "ln(avg k)", "setting": "[1]; [4]", "result": -16.464}, {"measurement": "ln(avg k)", "setting": "[1]; [5]", "result": -16.464}]}, {"smiles": "Cc1ccc(S(=O)(=O)N2CCN(C(=O)CCl)CC2)c(C)c1", "note": "[PCM-0102628, Cc1ccc(S(=O)(=O)N2CCN(C(=O)CCl)CC2)c(C)c1]", "values": [{"measurement": "OTUB2 % labeling", "setting": "OTUB2", "result": 0, "unit": "%"}, {"measurement": "NUDT7 % labeling", "setting": "NUDT7", "result": 0, "unit": "%"}, {"measurement": "ln(avg k)", "setting": "[1]; [4]", "result": -15.546}, {"measurement": "ln(avg k)", "setting": "[1]; [5]", "result": -15.546}]}, {"smiles": "CC(=O)Nc1ccc(NC(=O)CCl)c(C(F)(F)F)c1", "note": "[PCM-0102895, CC(=O)Nc1ccc(NC(=O)CCl)c(C(F)(F)F)c1]", "values": [{"measurement": "OTUB2 % labeling", "setting": "OTUB2; OTUB2 protein labeling", "result": 0, "unit": "%"}, {"measurement": "NUDT7 % labeling", "setting": "NUDT7", "result": 0, "unit": "%"}, {"measurement": "ln(avg k)", "setting": "[1]; [2]", "result": -16.611}, {"measurement": "ln(avg k)", "setting": "[1]; [3]", "result": -16.611}]}, {"smiles": "O=C(CCl)NCc1cccc(Cl)c1", "note": "[PCM-0102174, O=C(CCl)NCc1cccc(Cl)c1]", "values": [{"measurement": "OTUB2 % labeling", "setting": "OTUB2", "result": 25, "unit": "%"}, {"measurement": "NUDT7 % labeling", "setting": "NUDT7", "result": 0, "unit": "%"}, {"measurement": "ln(avg k)", "setting": "[1]; [4]", "result": -16.752}, {"measurement": "ln(avg k)", "setting": "[1]; [5]", "result": -16.752}]}, {"smiles": "Cn1nc(-c2ccc(Cl)cc2)cc1NC(=O)CCl", "note": "[PCM-0102296, Cn1nc(-c2ccc(Cl)cc2)cc1NC(=O)CCl]", "values": [{"measurement": "OTUB2 % labeling", "setting": "OTUB2", "result": 38, "unit": "%"}, {"measurement": "NUDT7 % labeling", "setting": "NUDT7", "result": 54, "unit": "%"}, {"measurement": "ln(avg k)", "setting": "[1]; [4]", "result": -15.558}, {"measurement": "ln(avg k)", "setting": "[1]; [5]", "result": -15.558}]}, {"smiles": "CN(CC(=O)NC(C)(C)C)C(=O)CCl", "note": "[PCM-0102259, CN(CC(=O)NC(C)(C)C)C(=O)CCl]", "values": [{"measurement": "OTUB2 % labeling", "setting": "OTUB2", "result": 0, "unit": "%"}, {"measurement": "NUDT7 % labeling", "setting": "NUDT7", "result": 0, "unit": "%"}, {"measurement": "ln(avg k)", "setting": "[1]; [4]", "result": -16.044}, {"measurement": "ln(avg k)", "setting": "[1]; [5]", "result": -16.044}]}, {"smiles": "O=C(CCl)NCC1CCS(=O)(=O)C1", "note": "(stereo not drawn) [PCM-0102896, O=C(CCl)NCC1CCS(=O)(=O)C1]", "values": [{"measurement": "OTUB2 % labeling", "setting": "OTUB2; OTUB2 protein labeling", "result": 23, "unit": "%"}, {"measurement": "NUDT7 % labeling", "setting": "NUDT7", "result": 0, "unit": "%"}, {"measurement": "ln(avg k)", "setting": "[1]; [2]", "result": -16.032}, {"measurement": "ln(avg k)", "setting": "[1]; [3]", "result": -16.032}]}, {"smiles": "O=C(CCl)N1CCN(c2cccc(C(F)(F)F)c2)CC1", "note": "[PCM-0102239, O=C(CCl)N1CCN(c2cccc(C(F)(F)F)c2)CC1]", "values": [{"measurement": "OTUB2 % labeling", "setting": "OTUB2", "result": 0, "unit": "%"}, {"measurement": "NUDT7 % labeling", "setting": "NUDT7", "result": 8, "unit": "%"}, {"measurement": "ln(avg k)", "setting": "[1]; [4]", "result": -15.673}, {"measurement": "ln(avg k)", "setting": "[1]; [5]", "result": -15.673}]}, {"smiles": "NC(=O)C1CCCCN1C(=O)CCl", "note": "(stereo not drawn) [PCM-0102203, NC(=O)C1CCCCN1C(=O)CCl]", "values": [{"measurement": "OTUB2 % labeling", "setting": "OTUB2", "result": 0, "unit": "%"}, {"measurement": "NUDT7 % labeling", "setting": "NUDT7", "result": 0, "unit": "%"}, {"measurement": "ln(avg k)", "setting": "[1]; [4]", "result": -15.988}, {"measurement": "ln(avg k)", "setting": "[1]; [5]", "result": -15.988}]}, {"smiles": "CC1CCc2ccccc2N1C(=O)CCl", "note": "(stereo not drawn) [PCM-0102822, CC1CCc2ccccc2N1C(=O)CCl]", "values": [{"measurement": "OTUB2 % labeling", "setting": "OTUB2; OTUB2 protein labeling", "result": 0, "unit": "%"}, {"measurement": "NUDT7 % labeling", "setting": "NUDT7", "result": 0, "unit": "%"}, {"measurement": "ln(avg k)", "setting": "[1]; [2]", "result": -16.310}, {"measurement": "ln(avg k)", "setting": "[1]; [3]", "result": -16.310}]}, {"smiles": "O=C(CCl)Nc1cc2c(cc1Cl)OCCO2", "note": "[PCM-0102585, O=C(CCl)Nc1cc2c(cc1Cl)OCCO2]", "values": [{"measurement": "OTUB2 % labeling", "setting": "OTUB2", "result": 0, "unit": "%"}, {"measurement": "NUDT7 % labeling", "setting": "NUDT7", "result": 12, "unit": "%"}, {"measurement": "ln(avg k)", "setting": "[1]; [4]", "result": -16.394}, {"measurement": "ln(avg k)", "setting": "[1]; [5]", "result": -16.394}]}]}
